From paper PMC5391474, “Investigation of the Role of Protein Kinase D in Human Rhinovirus Replication” (Journal of Virology, 2017)

Tests used:
PKD (PKD1) = target: T1, PKD (PKD1) (Homo sapiens, UniProt Q15139); assay: in vitro kinase assay with purified recombinant kinase; also pS916 inhibition in PANC1 and HeLa cells; assay type: biochemical
T1 construct: gene PRKD1

CaMKI(h) = target: T2, CaMKI(h) (Homo sapiens, UniProt Q14012); assay: biochemical; design: in vitro kinase selectivity panel, protein and lipid kinases, single concentration, ATP at Km; conditions: ATP at Km
T2 construct: gene CAMK1
T2 sequence (Q14012 whole entry): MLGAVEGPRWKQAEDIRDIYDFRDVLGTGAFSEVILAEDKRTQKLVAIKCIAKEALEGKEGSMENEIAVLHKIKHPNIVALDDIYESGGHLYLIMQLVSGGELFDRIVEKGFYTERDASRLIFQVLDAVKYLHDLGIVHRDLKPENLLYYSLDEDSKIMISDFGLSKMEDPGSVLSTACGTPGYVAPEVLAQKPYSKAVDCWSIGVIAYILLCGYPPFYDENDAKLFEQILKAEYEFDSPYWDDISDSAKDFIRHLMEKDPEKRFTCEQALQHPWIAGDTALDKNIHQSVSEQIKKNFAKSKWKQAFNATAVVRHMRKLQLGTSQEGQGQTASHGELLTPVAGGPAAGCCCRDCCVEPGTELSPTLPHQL
Method in brief: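 Single-point screen against a protein and lipid kinase panel: inhibitor at 1 μM. ATP concentration for every kinase equivalent to its Km.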

T1 sequence (Q15139 whole entry): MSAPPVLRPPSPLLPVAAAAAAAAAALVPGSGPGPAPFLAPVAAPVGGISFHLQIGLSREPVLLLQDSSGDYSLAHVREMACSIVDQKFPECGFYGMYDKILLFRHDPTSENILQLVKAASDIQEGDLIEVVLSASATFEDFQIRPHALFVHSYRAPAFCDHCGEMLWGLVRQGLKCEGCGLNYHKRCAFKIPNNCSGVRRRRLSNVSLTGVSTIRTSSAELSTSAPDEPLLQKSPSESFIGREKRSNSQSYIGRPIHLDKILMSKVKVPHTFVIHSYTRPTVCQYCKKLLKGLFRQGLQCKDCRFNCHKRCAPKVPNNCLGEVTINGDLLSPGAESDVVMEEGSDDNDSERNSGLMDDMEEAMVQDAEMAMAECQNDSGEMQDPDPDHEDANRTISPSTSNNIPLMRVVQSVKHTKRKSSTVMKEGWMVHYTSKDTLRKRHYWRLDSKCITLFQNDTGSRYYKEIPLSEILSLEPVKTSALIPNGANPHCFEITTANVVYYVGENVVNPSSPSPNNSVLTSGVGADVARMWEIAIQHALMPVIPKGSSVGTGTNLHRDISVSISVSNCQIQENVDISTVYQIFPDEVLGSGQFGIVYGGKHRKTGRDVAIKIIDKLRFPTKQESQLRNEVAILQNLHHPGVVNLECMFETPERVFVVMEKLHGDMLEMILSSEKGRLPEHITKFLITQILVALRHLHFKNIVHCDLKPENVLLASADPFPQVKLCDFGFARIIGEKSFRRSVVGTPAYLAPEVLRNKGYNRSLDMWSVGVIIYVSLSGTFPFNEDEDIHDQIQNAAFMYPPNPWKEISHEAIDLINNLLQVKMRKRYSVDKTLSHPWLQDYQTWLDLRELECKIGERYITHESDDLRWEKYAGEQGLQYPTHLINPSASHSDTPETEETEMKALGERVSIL

SMILES: CC[C@@H](N)CNc1ccnc(-c2cc(-c3cnn(C)c3)ccc2O)n1 [CRT0066101]
- IC50 (PKD (PKD1)): 1 nM
- inhibition at 1 µM (CaMKI(h)): 2%
